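Method: 48-hour compound exposure of cells in 96-well plates, five concentrations, linear interpolation of endpoints. At the TGI there is no net growth.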
Assays:
Test in all cases: DTP human tumour cell line panel, 48 h
A498 renal = test system: A498 renal
ACHN renal = test system: ACHN renal
DU-145 prostate = test system: DU-145 prostate
EKVX NSCLC = test system: EKVX NSCLC
HCC-2998 colon = test system: HCC-2998 colon
HOP-62 NSCLC = test system: HOP-62 NSCLC
HOP-92 NSCLC = test system: HOP-92 NSCLC
MOLT-4 leukemia = test system: MOLT-4 leukemia
NCI-H460 lung = test system: NCI-H460 lung
OVCAR-3 ovarian = test system: OVCAR-3 ovarian
OVCAR-5 ovarian = test system: OVCAR-5 ovarian
SF-295 CNS = test system: SF-295 CNS
SNB-19 CNS = test system: SNB-19 CNS
SNB-75 CNS = test system: SNB-75 CNS
T-47D breast = test system: T-47D breast
U251 CNS = test system: U251 CNS
UO-31 renal = test system: UO-31 renal
CCRF-CEM leukemia = test system: CCRF-CEM leukemia
K-562 leukemia = test system: K-562 leukemia
SR leukemia = test system: SR leukemia

Row | SMILES | TGI (A498 renal) [µM] | TGI (ACHN renal) [µM] | TGI (DU-145 prostate) [µM] | TGI (EKVX NSCLC) [µM] | TGI (HCC-2998 colon) [µM] | TGI (HOP-62 NSCLC) [µM] | TGI (HOP-92 NSCLC) [µM] | TGI (MOLT-4 leukemia) [µM] | TGI (NCI-H460 lung) [µM] | TGI (OVCAR-3 ovarian) [µM] | TGI (OVCAR-5 ovarian) [µM] | TGI (SF-295 CNS) [µM] | TGI (SNB-19 CNS) [µM] | TGI (SNB-75 CNS) [µM] | TGI (T-47D breast) [µM] | TGI (U251 CNS) [µM] | TGI (UO-31 renal) [µM] | TGI (CCRF-CEM leukemia) [µM] | TGI (K-562 leukemia) [µM] | TGI (SR leukemia) [µM]
1 | Cc1ccc(NC2=CC(=O)C(NO)c3ccccc32)cc1 (centres undefined) | 33.4 | 12.5 | 7.41 | 8.57 | 25.8 | 14.6 | 8.25 | 6.23 | 13.3 | 5.57 | 25 | 15.4 | 11.5 | 22.2 | 7.63 | 11.9 | 12.2 | – | – | –
2 | O=C(CCCN1CCC2(CC1)CC(=O)N(N1CCCCCC1)C2=O)c1ccccc1 | > 100 | > 100 | > 100 | > 100 | – | > 100 | > 100 | > 100 | – | > 100 | > 100 | > 100 | > 100 | > 100 | > 100 | > 100 | > 100 | > 100 | > 100 | > 100
3 | COc1ccc(CNC(=O)NCn2cc(-c3ccccc3)nn2)cc1 | – | > 100 | > 100 | > 100 | > 100 | > 100 | > 100 | > 100 | > 100 | – | > 100 | > 100 | > 100 | > 100 | – | > 100 | – | > 100 | > 100 | > 100
4 | C=CCOC(=O)NC1C(OC(C)[C@@H](NC(=O)OCc2ccccc2)C(=O)OC(C)(C)C)OC(COC(C)=O)C(OC(C)=O)C1OC(C)=O (some centres undefined) | > 100 | > 100 | > 100 | > 100 | > 100 | > 100 | > 100 | > 100 | > 100 | > 100 | > 100 | > 100 | > 100 | 9.46 | – | > 100 | 47.3 | > 100 | > 100 | > 100
5 | CN(C)CCN(C)c1ccc2c(=O)n(CCN(C)C)c(=O)n3c4ccccc4c(=O)c1c23 | 5.36 | 0.849 | 1.3 | 6.92 | 2.05 | 1.47 | 1.82 | 0.135 | 2.23 | 12.6 | 12.1 | 8.38 | 9.7 | 3.5 | 9.77 | 8.93 | 2.62 | 0.293 | – | –
6 | CCOP(=O)(OCC)C(C)(CC)N/C(=N/C(NC(C)=O)(C(F)(F)F)C(F)(F)F)NC1=NC(C(F)(F)F)(C(F)(F)F)N=C(C(F)(F)F)O1 (centres undefined) | > 100 | > 100 | > 100 | > 100 | > 100 | > 100 | 63.9 | 45.3 | > 100 | > 100 | > 100 | 82.8 | > 100 | 27.2 | > 100 | > 100 | – | > 100 | > 100 | –
7 | O=C1NC(=S)N/C1=C\c1ccc(Br)s1 | > 100 | > 100 | > 100 | > 100 | > 100 | > 100 | > 100 | > 100 | > 100 | > 100 | > 100 | > 100 | > 100 | – | – | > 100 | > 100 | > 100 | > 100 | > 100
8 | O=C(c1ccc(Cl)cc1)N(C(=O)N1CCC(c2ccccc2)CC1)c1ccccc1 | 96.5 | > 100 | > 100 | 69 | – | – | – | 57.1 | – | > 100 | 57.3 | > 100 | > 100 | 9.27 | 49.3 | > 100 | 98.7 | 77.4 | > 100 | –
9 | CC1=NN(c2nc(N)nc(CSc3nc4n(c(=S)n3)CCN4)n2)C(C)(C)C1 | > 100 | > 100 | – | > 100 | > 100 | 27.9 | 44.3 | > 100 | > 100 | – | – | 74 | > 100 | 39.7 | 54.1 | > 100 | – | > 100 | > 100 | > 100
10 | CC[C@@H]1CC[C@@H]2[C@H](CC[C@]3(C)[C@@H](OS(=O)(=O)c4ccc(C)cc4)CC[C@@H]23)[C@H]1COS(=O)(=O)c1ccc(C)cc1 | > 100 | > 100 | > 100 | > 100 | > 100 | – | > 100 | > 100 | > 100 | – | – | > 100 | > 100 | – | – | > 100 | > 100 | > 100 | > 100 | > 100
11 | CCOC(=O)Cn1c(=O)c2nc(SC)sc2n(CC)c1=S | – | > 100 | > 100 | – | > 100 | > 100 | > 100 | > 100 | > 100 | > 100 | > 100 | > 100 | > 100 | 52.4 | > 100 | > 100 | 28.8 | > 100 | > 100 | > 100
12 | Cn1c(O)c(C=Nc2ccccc2[N+](=O)[O-])c(=O)n(C)c1=O | > 100 | > 100 | – | > 100 | > 100 | > 100 | > 100 | > 100 | > 100 | > 100 | > 100 | > 100 | > 100 | > 100 | > 100 | > 100 | > 100 | > 100 | > 100 | > 100
13 | CN1CNc2nc(N)n(C)c(=O)c2C1 | – | > 10 | > 10 | > 10 | > 10 | – | > 10 | > 10 | > 10 | > 10 | > 10 | > 10 | > 10 | > 10 | – | > 10 | > 10 | > 10 | > 10 | > 10

Source: PubChem BioAssay (NCI)
